Reference: patent US11066403B2, “Solid form of azetidine derivative and preparation method therefor and use thereof” (SICHUAN KELUN-BIOTECH BIOPHARMACEUTICAL CO., LTD., priority 2017, dated 2021)
Values belong to the molecule of their own block, whether it stands above or below them.

Columns and labels:
[1] = Physicochemical stability (high temperature, high humidity, light; XRPD and HPLC); conditions: XRPD
[2] = Viscous fluidity test (bulk density, angle of repose); format: physicochemical; conditions: for angle of repose: funnel method, tan α=H/R; for most apparent density (bulk density): without applying any external force
Method: (§1) A measuring container was filled with crystalline form B (1.97 g) of the compound of Formula (I), and the volume was determined to be 7.62 ml without applying any external force. The most apparent density (i.e., bulk density) was calculated to be 0.26 g/ml. The powder was slowly added into a funnel from above so that the material leaking from the bottom of the funnel formed a conical stack on the horizontal surface, and the diameter of the bottom of the cone (2R) and the height of the cone (H) were measured to be 3.59 cm and 1.79 cm, respectively. And the angle of repose was calculated to be 45 degrees according to the formula for calculating the angle of repose (tan α=H/R).
as §1, with “The” for “A measuring container was filled with crystalline form B (1.97 g) of the compound of Formula (I), and the volume was determined to be 7.62 ml without applying any external force. The”, “0.43” for “0.26”, “cone” for “cone (H)”, “2.91” for “3.59”, “1.46” for “1.79”

[3] = Cytotoxicity (MTS) in N2a; format: cell-based; conditions: mouse, N2a neuroblastoma cells, neuroblastoma cell, 40 h incubation
Method: (§2) The cells were plated at a concentration of 2×10^4 cells/well and incubated for 4 h at 37° C. in a 5% CO2 incubator. The crystalline form of the compound of Formula (I) of the present invention was added, and incubation was continued for 40 h. The incubation solution was removed, and a complete medium was added (100 μl/well) to each test well and incubated in the incubator for 0.5 to 1 h. Then, MTS solution was added (10 μl/well) thereto, and incubation was continued for 4 h in the incubator. The absorbance at 450 nm was measured, and the IC50 value was calculated.

JAK3 = target: T1, JAK3 (Homo sapiens, UniProt P52333); assay: JAK3 enzymatic activity inhibition assay (HTRF KinEASE-TK); format: biochemical
T1 sequence (P52333 1-1124): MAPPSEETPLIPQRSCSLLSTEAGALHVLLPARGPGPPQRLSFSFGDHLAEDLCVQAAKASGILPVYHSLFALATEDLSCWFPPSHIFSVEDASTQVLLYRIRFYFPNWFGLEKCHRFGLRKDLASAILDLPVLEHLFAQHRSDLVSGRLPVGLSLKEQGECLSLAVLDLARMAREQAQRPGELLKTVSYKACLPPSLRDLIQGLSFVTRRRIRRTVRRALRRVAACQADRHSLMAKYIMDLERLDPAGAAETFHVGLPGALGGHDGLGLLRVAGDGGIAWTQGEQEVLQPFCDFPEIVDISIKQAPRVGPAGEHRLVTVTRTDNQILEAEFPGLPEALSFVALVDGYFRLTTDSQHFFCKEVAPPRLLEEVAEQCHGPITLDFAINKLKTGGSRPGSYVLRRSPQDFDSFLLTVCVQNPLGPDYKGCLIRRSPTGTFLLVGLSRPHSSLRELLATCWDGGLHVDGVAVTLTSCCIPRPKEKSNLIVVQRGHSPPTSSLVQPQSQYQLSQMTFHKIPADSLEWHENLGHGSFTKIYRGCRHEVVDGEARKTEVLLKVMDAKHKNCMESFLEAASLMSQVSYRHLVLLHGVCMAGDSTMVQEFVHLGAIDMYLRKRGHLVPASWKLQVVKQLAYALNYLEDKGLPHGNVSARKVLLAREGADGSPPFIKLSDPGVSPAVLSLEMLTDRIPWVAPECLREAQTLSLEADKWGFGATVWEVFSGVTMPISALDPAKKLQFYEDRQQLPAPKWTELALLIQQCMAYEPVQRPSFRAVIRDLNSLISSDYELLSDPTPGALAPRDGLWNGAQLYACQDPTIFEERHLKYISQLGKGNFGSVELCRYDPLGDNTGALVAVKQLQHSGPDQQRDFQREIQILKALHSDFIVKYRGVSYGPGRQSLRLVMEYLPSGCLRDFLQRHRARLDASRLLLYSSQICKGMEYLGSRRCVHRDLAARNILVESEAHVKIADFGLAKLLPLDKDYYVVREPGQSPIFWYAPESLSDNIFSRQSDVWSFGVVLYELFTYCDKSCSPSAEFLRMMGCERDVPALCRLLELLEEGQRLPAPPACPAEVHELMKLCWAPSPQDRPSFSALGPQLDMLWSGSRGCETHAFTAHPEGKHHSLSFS
Method: (§3) The crystalline form of the compound of Formula (I), an enzyme, a substrate and ATP were diluted to desired concentrations with the buffer in the HTRF® KinEASE™-TK kit (Cisbio). The former three agents were added into a multiple well plate, and incubated at room temperature after being mixed homogeneously. ATP was added to initiate the kinase reaction, and incubation at room temperature was performed. The test reagent in the kit was used to terminate the reaction, and incubation was continued at room temperature. After the incubation was completed, fluorescence signals at 620 nm and 665 nm were measured using a BMG PHERAstar FS microplate reader, and the half inhibitory concentration (IC50) values were calculated.

[4] = tested on: Collagen-Induced Arthritis (CIA) model; assay: Efficacy in collagen-induced arthritis (CIA) model in rats; format: in vivo, rat; parameters: Mean pathological score, Joint inflammation (X ± SD) / Mean pathological score, Joint cartilage erosion (X ± SD) / Mean pathological score, Synovial hyperplasia/pannus (X ± SD): scale not given here; conditions: for Mean pathological score, Joint cartilage erosion (X ± SD) / Mean pathological score, Joint inflammation (X ± SD) / Mean pathological score, Synovial hyperplasia/pannus (X ± SD): hind paw joints
Method: After female Lewis rats were immunized twice with bovine type II collagen to form a CIA model, the rats were randomly divided into 4 groups (the vehicle group, and the groups of the crystalline form of the compound of Formula (I) of the present invention (1 mg/kg, 3 mg/kg, 10 mg/kg), respectively), and unmodeled rats were taken as the normal group. The corresponding drugs were administered by gavage once a day for 14 days (D15-D28). The hind paw was scored for arthritis index during the administration (the results are shown in Table 5); and after the end of the experiment, the ankle joint was taken for pathologic analysis (the average pathological scores of the hind paw joints of the rats are shown in Table 6).

[5] = Cytotoxicity (MTS) in HEK293; format: cell-based; conditions: HEK293 cells, human embryonic kidney cell, 40 h incubation
Method: as §2

hERG potassium channel = target: T2, hERG potassium channel (Homo sapiens, UniProt Q12809); assay: hERG test (Predictor hERG Fluorescence Polarization Assay Kit); format: binding
T2 construct: purchased Thermo Fisher
Method: The effects of the crystalline forms of the compound of Formula (I) on hERG potassium channel were determined using a biochemical hERG assay kit based on fluorescence polarization technology (Predictor™ hERG Fluorescence Polarization Assay Kit, Thermo Fisher) to assess the potential of the crystalline form of the compound of Formula (I) in inducing cardiac QT interval prolongation.

TYK2 = TYK2 (Homo sapiens, UniProt P29597); assay: TYK2 enzymatic activity inhibition assay (HTRF KinEASE-TK); format: biochemical
Method: as §3

[6] = Cytotoxicity (MTS) in HK-2; format: cell-based; conditions: HK-2 cells, human proximal tubular cell, 40 h incubation
Method: as §2

[7] = tested on: STAT3 phosphorylation in Hep3B cells; assay: Effect on JAK/STAT signaling pathway in Hep3B cells (IL-6 induced p-STAT3, AlphaLISA); format: cell-based; conditions: Homo sapiens, 0.5 h, IL-6 stimulation 30 min
Method: After incubating the crystalline form of the compound of Formula (I) of the present invention with Hep3B cells in a 37° C., 5% CO2 incubator for 15 min, […] IL-6 was added. Incubation was continued for 30 min, and the cells were lysed. The lysate was added to AlphaLISA SureFire Ultra p-STAT3 (Tyr705) assay kit (PerkinElmer), incubated at room temperature in dark, and the signals emitted by the receptor microbeads after energy absorption were measured, and the half inhibitory concentration (IC50) of inhibiting STAT3 phosphorylation was calculated.

[8] = high humidity (92.5%) for 5 days
[9] = high temperature (60° C.) for 5 days
[10] = 1 mg/kg gavage once a day for 14 days
[11] = 3 mg/kg gavage once a day for 14 days
[12] = 10 mg/kg gavage once a day for 14 days

T2 sequence (Q12809 whole entry): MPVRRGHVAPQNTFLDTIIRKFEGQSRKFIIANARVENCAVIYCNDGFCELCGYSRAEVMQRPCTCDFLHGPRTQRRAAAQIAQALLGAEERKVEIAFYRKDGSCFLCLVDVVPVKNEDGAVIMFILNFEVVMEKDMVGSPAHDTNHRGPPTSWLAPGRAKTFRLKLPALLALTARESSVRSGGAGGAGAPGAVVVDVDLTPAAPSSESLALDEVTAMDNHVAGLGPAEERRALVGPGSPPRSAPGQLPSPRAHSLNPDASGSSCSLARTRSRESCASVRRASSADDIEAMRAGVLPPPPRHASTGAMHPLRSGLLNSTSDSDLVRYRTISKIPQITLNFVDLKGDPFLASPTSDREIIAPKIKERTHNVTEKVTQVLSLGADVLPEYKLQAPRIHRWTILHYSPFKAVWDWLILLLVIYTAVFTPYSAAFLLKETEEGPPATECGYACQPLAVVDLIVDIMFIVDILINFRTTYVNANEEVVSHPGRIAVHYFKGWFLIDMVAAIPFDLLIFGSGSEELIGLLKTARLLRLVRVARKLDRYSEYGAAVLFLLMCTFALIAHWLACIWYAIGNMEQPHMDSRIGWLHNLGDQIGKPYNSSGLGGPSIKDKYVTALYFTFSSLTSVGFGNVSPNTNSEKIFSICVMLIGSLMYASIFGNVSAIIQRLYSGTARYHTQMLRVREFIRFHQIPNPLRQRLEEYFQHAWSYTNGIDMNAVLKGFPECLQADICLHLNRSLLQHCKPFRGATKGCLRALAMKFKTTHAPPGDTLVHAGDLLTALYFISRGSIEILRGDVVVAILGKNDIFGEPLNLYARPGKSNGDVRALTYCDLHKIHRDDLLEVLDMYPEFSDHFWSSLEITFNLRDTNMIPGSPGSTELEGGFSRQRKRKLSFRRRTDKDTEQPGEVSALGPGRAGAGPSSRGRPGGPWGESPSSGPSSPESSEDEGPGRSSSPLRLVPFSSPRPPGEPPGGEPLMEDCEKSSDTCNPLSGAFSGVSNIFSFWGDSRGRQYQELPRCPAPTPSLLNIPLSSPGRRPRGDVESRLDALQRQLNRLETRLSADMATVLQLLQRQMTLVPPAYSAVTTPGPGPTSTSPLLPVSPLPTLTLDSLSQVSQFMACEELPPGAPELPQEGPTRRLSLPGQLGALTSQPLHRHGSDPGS
Sequence of TYK2 (P29597 whole entry, species assumed): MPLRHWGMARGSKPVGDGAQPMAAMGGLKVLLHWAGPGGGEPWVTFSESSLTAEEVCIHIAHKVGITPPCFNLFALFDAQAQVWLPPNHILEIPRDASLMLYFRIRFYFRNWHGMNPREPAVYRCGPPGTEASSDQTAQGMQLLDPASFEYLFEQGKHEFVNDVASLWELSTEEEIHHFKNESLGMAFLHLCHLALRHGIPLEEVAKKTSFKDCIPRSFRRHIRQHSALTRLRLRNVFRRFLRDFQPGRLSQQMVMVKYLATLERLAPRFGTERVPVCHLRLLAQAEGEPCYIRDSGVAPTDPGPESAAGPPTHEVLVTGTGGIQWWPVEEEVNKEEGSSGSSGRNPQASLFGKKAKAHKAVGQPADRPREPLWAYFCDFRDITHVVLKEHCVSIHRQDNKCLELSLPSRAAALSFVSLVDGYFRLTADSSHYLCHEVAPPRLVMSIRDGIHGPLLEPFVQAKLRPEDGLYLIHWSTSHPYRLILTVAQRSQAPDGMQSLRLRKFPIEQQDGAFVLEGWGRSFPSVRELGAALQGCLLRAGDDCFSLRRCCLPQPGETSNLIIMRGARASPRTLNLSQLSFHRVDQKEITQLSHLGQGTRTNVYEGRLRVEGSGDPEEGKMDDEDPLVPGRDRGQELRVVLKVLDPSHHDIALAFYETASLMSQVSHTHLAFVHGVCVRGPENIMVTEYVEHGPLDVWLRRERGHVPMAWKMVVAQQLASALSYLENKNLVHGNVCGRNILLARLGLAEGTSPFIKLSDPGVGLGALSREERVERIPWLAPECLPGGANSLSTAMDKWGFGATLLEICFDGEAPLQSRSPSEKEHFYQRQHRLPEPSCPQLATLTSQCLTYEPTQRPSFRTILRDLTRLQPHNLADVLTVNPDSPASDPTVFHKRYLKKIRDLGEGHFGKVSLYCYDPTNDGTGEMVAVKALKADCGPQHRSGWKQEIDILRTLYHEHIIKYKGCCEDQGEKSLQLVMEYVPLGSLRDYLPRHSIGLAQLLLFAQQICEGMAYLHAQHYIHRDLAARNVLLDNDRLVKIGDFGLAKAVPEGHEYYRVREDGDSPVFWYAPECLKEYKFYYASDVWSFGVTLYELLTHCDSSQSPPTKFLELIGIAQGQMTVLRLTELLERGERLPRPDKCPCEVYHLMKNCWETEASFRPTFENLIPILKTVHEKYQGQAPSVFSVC

Changes in crystalline form [1, 8]: No
Changes in crystalline form [1, 9]: No
Changes in crystalline form ([1]; light condition for 5 days): No
particle fluidity [2]: good particle fluidity
angle of repose [2]: 45 degrees
most apparent density (bulk density) [2]: 0.26 g/mL
SMILES: CCS(=O)(=O)N1CC(CC#N)(n2cc(-c3ccnc4[nH]ccc34)cn2)C1 [Crystalline form B, 2-(3-(4-(1H-pyrrolo[2,3-b]pyridin-4-yl)-1H-pyrazol-1-yl)-1-(ethylsulfonyl)azetidin-3-yl)acetonitrile]

Changes in crystalline form [1, 8]: No
Changes in crystalline form [1, 9]: No
Changes in crystalline form ([1]; light condition for 5 days): No
IC50 (JAK3): 0.0161 ± 0.00155 µM
IC50 (TYK2): 0.0228 ± 0.00403 µM
IC50 [7]: 0.123 ± 0.0183 µM
particle fluidity [2]: good particle fluidity
angle of repose [2]: 45 degrees
most apparent density (bulk density) [2]: 0.43 g/mL
SMILES: CCS(=O)(=O)N1CC(CC#N)(n2cc(-c3ccnc4[nH]ccc34)cn2)C1 [Crystalline form A, 2-(3-(4-(1H-pyrrolo[2,3-b]pyridin-4-yl)-1H-pyrazol-1-yl)-1-(ethylsulfonyl)azetidin-3-yl)acetonitrile]
IC50 at 40 h [3]: 33.6 µM
Effect on mean pathological score of synovial hyperplasia/pannus (in words) ([4]; 1 mg/kg): to some extent
Effect on mean pathological scores of joint inflammation and joint cartilage erosion (in words) ([4]; 1 mg/kg): significantly reduce
Mean pathological score, Joint cartilage erosion (X ± SD) [4, 10]: 5.10 ± 1.52
Mean pathological score, Joint inflammation (X ± SD) [4, 10]: 4.00 ± 1.25
Mean pathological score, Synovial hyperplasia/pannus (X ± SD) [4, 10]: 6.90 ± 0.99
Effect on mean pathological scores of joint inflammation, joint cartilage erosion and synovial hyperplasia/pannus (in words) ([4]; 3 mg/kg): significantly reduce
Mean pathological score, Joint cartilage erosion (X ± SD) [4, 11]: 2.20 ± 1.93
Mean pathological score, Joint inflammation (X ± SD) [4, 11]: 2.60 ± 1.90
Mean pathological score, Synovial hyperplasia/pannus (X ± SD) [4, 11]: 4.80 ± 1.40
Effect on mean pathological scores of joint inflammation, joint cartilage erosion and synovial hyperplasia/pannus (in words) ([4]; 10 mg/kg): significantly reduce
Mean pathological score, Joint cartilage erosion (X ± SD) [4, 12]: 0.10 ± 0.32
Mean pathological score, Joint inflammation (X ± SD) [4, 12]: 0.30 ± 0.67
Mean pathological score, Synovial hyperplasia/pannus (X ± SD) [4, 12]: 2.20 ± 0.42
IC50 at 40 h [5]: > 50 µM
inhibition at 2 h, 30 µM (hERG potassium channel; human, probe tracer with high hERG affinity, at 30 μM, read-out: hERG inhibition rate): < 50%
IC50 (hERG potassium channel; test concentration 3, 10 and 30 μM, 25° C., 2 h): > 30 µM
IC50 at 40 h [6]: 23.1 µM
